Consider six compounds from PMC5814057, “Folic acid derived-P5779 mimetics regulate DAMP-mediated inflammation through disruption of HMGB1:TLR4:MD-2 axes” (PLoS ONE, 2018).

For one data set, the target named is T1, MD-2 (Homo sapiens, UniProt Q9Y6Y9).
T1 construct: purchased R&D Systems 1787-MD
T1 sequence (Q9Y6Y9 19-160): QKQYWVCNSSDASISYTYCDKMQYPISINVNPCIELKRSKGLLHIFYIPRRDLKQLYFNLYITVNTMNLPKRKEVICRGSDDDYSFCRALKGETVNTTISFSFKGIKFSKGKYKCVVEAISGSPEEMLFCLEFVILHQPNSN
The experiment in a line: SPR direct binding to immobilized MD-2 (Biacore T200). Particulars: MD-2 immobilized on CM5 chip. The procedure: (§1) Biacore T200 (GE Healthcare, USA) was used for real-time binding interaction studies. […] For binding analyses, CM5 series chips (GE Healthcare) were activated and the reference flow-cell was blocked by 1 M ethanolamine (pH = 8.5). The ligand protein MD-2 dilution (10 ug/mL in 10 mM Acetate buffer pH 5) or HMGB1 (20 ug/mL in 10 mM acetate buffer pH = 4.5) or TLR4/MD2 complex (10 ug/mL in 10 mM acetate buffer pH 4.5) were subjected to the sample flow-cell at the flow rate of 10 uL/min until the surface Plasmon resonance reached 1000–2000 RU. Analytes (Folic acid analogues) diluted into 5 different concentrations were sequentially injected at a flow rate of 30uL/min for 60s or 120s (TLR4/MD-2). The dissociation time was set for 1 minute or 2 minutes (TLR4/MD-2). The equilibrium dissociation constant (KD) was obtained to evaluate the binding affinity by using the BIAEvaluation 2.0 software (GE Healthcare) supposing a 1:1 binding ratio. At least 3 independent experiments were performed.
Background: In SPR one partner is held on a chip, and binding of the other changes the refractive index at the surface.

The next data set concerns the target T2, TLR4/MD-2 complex (Homo sapiens, UniProt O00206+Q9Y6Y9).
T2 construct: purchased R&D Systems 3146-TM-050
Description: SPR direct binding to immobilized TLR4/MD-2 complex. The note with it: TLR4/MD-2 complex immobilized. The procedure:
Biacore T200 (GE Healthcare, USA) was used for real-time binding interaction studies. Recombinant human TLR4/MD2 (R&D 3146-TM-050) complex protein and MD2 (R&D 1787-MD) protein were purchased from R&D Systems (Minneapolis, USA). For binding analyses, CM5 series chips (GE Healthcare) were activated and the reference flow-cell was blocked by 1 M ethanolamine (pH = 8.5). The ligand protein MD-2 dilution (10 ug/mL in 10 mM Acetate buffer pH 5) or HMGB1 (20 ug/mL in 10 mM acetate buffer pH = 4.5) or TLR4/MD2 complex (10 ug/mL in 10 mM acetate buffer pH 4.5) were subjected to the sample flow-cell at the flow rate of 10 uL/min until the surface Plasmon resonance reached 1000–2000 RU. Analytes (Folic acid analogues) diluted into 5 different concentrations were sequentially injected at a flow rate of 30uL/min for 60s or 120s (TLR4/MD-2). The dissociation time was set for 1 minute or 2 minutes (TLR4/MD-2). The equilibrium dissociation constant (KD) was obtained to evaluate the binding affinity by using the BIAEvaluation 2.0 software (GE Healthcare) supposing a 1:1 binding ratio. At least 3 independent experiments were performed.

The nature of data set [1]: Stability of compound noted for the SPR experiment. Type of data set: physicochemical. Particulars: excluded from the SPR experiment.
Another data set has as its system HMGB1. Description: SPR direct binding to immobilized HMGB1. The procedure: as §1

T2 sequence (O00206 24-631 limits assumed): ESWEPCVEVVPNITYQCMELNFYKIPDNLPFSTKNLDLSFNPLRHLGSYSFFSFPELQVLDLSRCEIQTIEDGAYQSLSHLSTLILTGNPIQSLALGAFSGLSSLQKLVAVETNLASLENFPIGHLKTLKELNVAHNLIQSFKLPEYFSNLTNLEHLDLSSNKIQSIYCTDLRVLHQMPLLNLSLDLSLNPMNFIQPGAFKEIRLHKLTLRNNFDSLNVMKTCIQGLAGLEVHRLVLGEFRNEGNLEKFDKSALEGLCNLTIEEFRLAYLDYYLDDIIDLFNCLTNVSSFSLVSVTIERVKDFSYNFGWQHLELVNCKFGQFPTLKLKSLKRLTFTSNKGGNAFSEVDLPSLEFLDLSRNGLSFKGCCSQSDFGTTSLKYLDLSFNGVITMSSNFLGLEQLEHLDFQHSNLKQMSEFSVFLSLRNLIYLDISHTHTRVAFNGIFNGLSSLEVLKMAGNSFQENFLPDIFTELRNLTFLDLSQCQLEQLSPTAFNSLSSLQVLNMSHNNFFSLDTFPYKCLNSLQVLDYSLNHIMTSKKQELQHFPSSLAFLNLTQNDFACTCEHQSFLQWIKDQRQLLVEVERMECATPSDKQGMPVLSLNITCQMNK
T2 sequence (Q9Y6Y9 17-160 limits assumed): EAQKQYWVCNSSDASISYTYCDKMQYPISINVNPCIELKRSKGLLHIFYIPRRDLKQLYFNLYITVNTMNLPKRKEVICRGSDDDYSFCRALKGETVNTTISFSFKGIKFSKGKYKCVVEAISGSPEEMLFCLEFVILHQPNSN

The term Kd denotes the free concentration of one partner at which half of the binding sites on the other are occupied at equilibrium, for simple one-to-one binding. A lower Kd goes with higher affinity. Regarding `Nc1nc(N)c2nc(CNc3ccc(C(=O)N[C@@H](CCC(=O)O)C(=O)O)cc3)cnc2n1` [Aminopterin, aminopterin], on MD-2, binding was characterised by a dissociation constant (Kd) of 301 nM.

`Nc1nc(=O)c2nc(CNc3ccc(C(=O)N[C@@H](CCC(=O)O)C(=O)O)cc3)cnc2[nH]1` [Folic acid, folic acid]: the Kd on TLR4/MD-2 complex was found to be 537 nM; at MD-2 (1:1 binding), 2390 nM. Besides, the “binding to MD-2 (in words)” value at MD-2 is recorded as “moderate binding”.

As for `Nc1nc(=O)c2c([nH]1)NCC(CNc1ccc(C(=O)NC(CCC(=O)O)C(=O)O)cc1)N2` (stereo not drawn) [Tetrahydrofolic acid, tetrahydrofolic acid], in data set [1], the stability result is “decomposition over time”.

With `CN(Cc1cnc2nc(N)nc(N)c2n1)c1ccc(C(=O)N[C@@H](CCC(=O)O)C(=O)O)cc1` [Methotrexate, methotrexate], the “binding to HMGB1” value with HMGB1 is recorded as “no binding”. Further, on MD-2, the dissociation constant (Kd) came to 214 nM.

As to `Nc1nc2c(c(=O)[nH]1)N(C=O)C(CNc1ccc(C(=O)N[C@@H](CCC(=O)O)C(=O)O)cc1)CN2` (stereo partly drawn) [Leucovorin, leucovorin], the Kd at MD-2 (1:1 binding) came to 15000 nM.

Take `C#CCC(Cc1cnc2nc(N)nc(N)c2n1)c1ccc(C(=O)N[C@@H](CCC(=O)O)C(=O)O)cc1` (stereo partly drawn) [Pralatrexate, pralatrexate]: binding on MD-2 (1:1 binding) was characterised by a dissociation constant (Kd) of 1870 nM.
